“And” between values parts separate entries of the source, which are not always exact repeats. Equal entries are not always repeated.
Tests used:
Format in all cases: functional
HOP-62 [1] = test: Growth inhibition of human HOP-62 cells assessed as growth percentage at 100 uM incubated for 48 hrs by sulforhodamine B assay relative to control; conditions: read-out: Activity
DU-145 = test: Growth inhibition of human DU-145 cells assessed as growth percentage at 1 uM incubated for 48 hrs by sulforhodamine B assay relative to control; conditions: read-out: Activity
MCF7 = test: Antiproliferative activity against human MCF7 cells assessed as cell growth inhibition at 10 uM measured after 72 hrs by MTT assay relative to control; conditions: read-out: GI
A549 = test: Growth inhibition of human A549/ATCC cells assessed as growth percentage at 100 uM incubated for 48 hrs by sulforhodamine B assay relative to control; conditions: read-out: Activity
T47D = test: Growth inhibition of human T47D cells assessed as growth percentage at 0.01 uM incubated for 48 hrs by sulforhodamine B assay relative to control; conditions: read-out: Activity
NCI-H322M = test: Growth inhibition of human NCI-H322M cells incubated for 48 hrs by sulforhodamine B assay; conditions: for CC50: 48 h, read-out: LC50 (the source's name)
COLO 205 [2] = test: Growth inhibition of human COLO 205 cells assessed as growth percentage at 1 uM incubated for 48 hrs by sulforhodamine B assay relative to control; conditions: read-out: Activity
IGROV-1 = test: Growth inhibition of human IGROV-1 assessed as growth percent at 0.01 uM incubated for 48 hrs by sulforhodamine B assay relative to control; conditions: read-out: Activity
786-0 = test: Growth inhibition of human 786-0 cells assessed as growth percentage at 100 uM incubated for 48 hrs by sulforhodamine B assay relative to control; conditions: read-out: Activity
HCT-15 [3] = test: Growth inhibition of human HCT-15 cells assessed as growth percentage at 0.1 uM incubated for 48 hrs by sulforhodamine B assay relative to control; conditions: read-out: Activity
SK-BR-3 = test: Antiproliferative activity against human SK-BR-3 cells assessed as cell growth inhibition at 10 uM measured after 72 hrs by MTT assay relative to control; conditions: read-out: GI
RPMI-8226 = test: Growth inhibition of human RPMI-8226 cells assessed as growth percentage at 10 uM incubated for 48 hrs by sulforhodamine B assay relative to control; conditions: read-out: Activity
HCC 2998 = test: Growth inhibition of human HCC 2998 cells assessed as growth percentage at 0.01 uM incubated for 48 hrs by sulforhodamine B assay relative to control; conditions: read-out: Activity
NCI-H23 = test: Growth inhibition of human NCI-H23 cells assessed as growth percentage at 0.1 uM incubated for 48 hrs by sulforhodamine B assay relative to control; conditions: read-out: Activity
SN12C = test: Growth inhibition of human SN12C cells assessed as growth percentage at 10 uM incubated for 48 hrs by sulforhodamine B assay relative to control; conditions: read-out: Activity
SK-OV-3 = test: Growth inhibition of human SK-OV-3 cells incubated for 48 hrs by sulforhodamine B assay; conditions: for GI50: SK-OV-3
NCI/ADR-RES = test: Growth inhibition of human NCI/ADR-RES cells assessed as growth percentage at 0.1 uM incubated for 48 hrs by sulforhodamine B assay relative to control; conditions: read-out: Activity
ACHN = test: Growth inhibition of human ACHN cells assessed as growth percentage at 10 uM incubated for 48 hrs by sulforhodamine B assay relative to control; conditions: read-out: Activity
MDA-MB-231 = test: Growth inhibition of human MDA-MB-231/ATCC cells assessed as growth percentage at 100 uM incubated for 48 hrs by sulforhodamine B assay relative to control; conditions: read-out: Activity
UACC-257 = test: Growth inhibition of human UACC-257 cells assessed as growth percentage at 10 uM incubated for 48 hrs by sulforhodamine B assay relative to control; conditions: read-out: Activity
COLO 205 [4] = test: Growth inhibition of human COLO 205 cells assessed as growth percentage at 100 uM incubated for 48 hrs by sulforhodamine B assay relative to control; conditions: read-out: Activity
HOP-62 [5] = test: Growth inhibition of human HOP-62 cells incubated for 48 hrs by sulforhodamine B assay
SF-268 [6] = test: Growth inhibition of human SF-268 cells assessed as growth percentage at 0.1 uM incubated for 48 hrs by sulforhodamine B assay relative to control; conditions: read-out: Activity
SF-295 = test: Growth inhibition of human SF-295 cells assessed as growth percentage at 100 uM incubated for 48 hrs by sulforhodamine B assay relative to control; conditions: read-out: Activity
HCT-15 [7] = test: Growth inhibition of human HCT-15 cells incubated for 48 hrs by sulforhodamine B assay; conditions: for TGI: HCT-15
HOP-92 = test: Growth inhibition of human HOP-92 cells assessed as growth percentage at 0.01 uM incubated for 48 hrs by sulforhodamine B assay relative to control; conditions: read-out: Activity
MOLT-4 = test: Growth inhibition of human MOLT-4 cells assessed as growth percentage at 0.1 uM incubated for 48 hrs by sulforhodamine B assay relative to control; conditions: read-out: Activity
UO-31 = test: Growth inhibition of human UO-31 cells assessed as growth percentage at 10 uM incubated for 48 hrs by sulforhodamine B assay relative to control; conditions: read-out: Activity
OVCAR-8 = test: Growth inhibition of human OVCAR-8 cells assessed as growth percentage at 0.01 uM incubated for 48 hrs by sulforhodamine B assay relative to control; conditions: read-out: Activity
NCI-H522 = test: Growth inhibition of human NCI-H522 cells assessed as growth percentage at 100 uM incubated for 48 hrs by sulforhodamine B assay relative to control; conditions: read-out: Activity
KM12 = test: Growth inhibition of human KM12 cells assessed as growth percentage at 0.1 uM incubated for 48 hrs by sulforhodamine B assay relative to control; conditions: read-out: Activity
Hs-578T = test: Growth inhibition of human Hs-578T cells assessed as growth percentage at 10 uM incubated for 48 hrs by sulforhodamine B assay relative to control; conditions: read-out: Activity
COLO 205 [8] = test: Growth inhibition of human COLO 205 cells assessed as growth percentage at 0.01 uM incubated for 48 hrs by sulforhodamine B assay relative to control; conditions: read-out: Activity
UACC-62 = test: Growth inhibition of human UACC-62 cells assessed as growth percentage at 0.01 uM incubated for 48 hrs by sulforhodamine B assay relative to control; conditions: read-out: Activity
M14 = test: Growth inhibition of human M14 cells incubated for 48 hrs by sulforhodamine B assay
NCI-H460 = test: Growth inhibition of human NCI-H460 cells assessed as growth percentage at 10 uM incubated for 48 hrs by sulforhodamine B assay relative to control; conditions: read-out: Activity
OVCAR-5 = test: Growth inhibition of human OVCAR-5 cells incubated for 48 hrs by sulforhodamine B assay
SF-268 [9] = test: Growth inhibition of human SF-268 cells assessed as growth percentage at 0.01 uM incubated for 48 hrs by sulforhodamine B assay relative to control; conditions: read-out: Activity

Nc1nc2[nH]c(CN3CCN(c4cc(Cl)cc(Cl)c4)CC3)c(CN3CCN(c4cc(Cl)cc(Cl)c4)CC3)c2c(=O)[nH]1
growth at 100 µM (HOP-62 [1]): -38%
growth at 1 µM (DU-145): 105%
inhibition of growth at 10 µM (MCF7): 82.5%
growth at 100 µM (A549): -45%
growth at 0.01 µM (T47D): 91%
CC50 (NCI-H322M): 73.2 µM and 7.32 µM
growth at 1 µM (COLO 205 [2]): 85%
growth at 0.01 µM (IGROV-1): 104%
growth at 100 µM (786-0): -41%
growth at 0.1 µM (HCT-15 [3]): 95%
inhibition of growth at 10 µM (SK-BR-3): 90%
growth at 10 µM (RPMI-8226): 38.4%
growth at 0.01 µM (HCC 2998): 106%
growth at 0.1 µM (NCI-H23): 107%
growth at 10 µM (SN12C): 73.1%
TGI (SK-OV-3; 48 h): 17.5 µM and 1.75 µM
GI50 (SK-OV-3; Homo sapiens): 4.62 µM
growth at 0.1 µM (NCI/ADR-RES): 97%
growth at 10 µM (ACHN): 96.8%
growth at 100 µM (MDA-MB-231): -30%
growth at 10 µM (UACC-257): 97.6%
growth at 100 µM (COLO 205 [4]): -45%
GI50 (HOP-62 [5]): 1.67 µM
TGI (HOP-62 [5]): 3.45 µM
growth at 0.1 µM (SF-268 [6]): 102%
growth at 100 µM (SF-295): -33%
TGI (HCT-15 [7]; Homo sapiens): 4.05 µM
GI50 (HCT-15 [7]; Homo sapiens, HCT-15, 48 h): 1.93 µM
growth at 0.01 µM (HOP-92): 85%
growth at 0.1 µM (MOLT-4): 104%
growth at 10 µM (UO-31): 75.1%
growth at 0.01 µM (OVCAR-8): 100%
growth at 100 µM (NCI-H522): -60%
growth at 0.1 µM (KM12): 105%
growth at 10 µM (Hs-578T): 98.8%
growth at 0.01 µM (COLO 205 [8]): 95%
growth at 0.01 µM (UACC-62): 101%
GI50 (M14; Homo sapiens, M14, 48 h): 1.83 µM
TGI (M14; Homo sapiens, M14, 48 h): 3.63 µM
growth at 10 µM (NCI-H460): 79.4%
GI50 (OVCAR-5): 2.64 µM
TGI (OVCAR-5): 9.27 µM
growth at 0.01 µM (SF-268 [9]): 102%

CCCCCCCC(=O)Nc1nc2[nH]c(CN3CCN(Cc4cccc(F)c4)CC3)c(CN3CCN(Cc4cccc(F)c4)CC3)c2c(=O)[nH]1
growth at 100 µM (HOP-62 [1]): -95%
growth at 1 µM (DU-145): 56%
inhibition of growth at 10 µM (MCF7): 94.8%
growth at 100 µM (A549): -88%
growth at 0.01 µM (T47D): 95%
GI50 (NCI-H322M; Homo sapiens, NCI-H322M): 1.46 µM
TGI (NCI-H322M; Homo sapiens, NCI-H322M): 2.92 µM
CC50 (NCI-H322M; Homo sapiens, NCI-H322M): 5.83 µM
growth at 1 µM (COLO 205 [2]): 74%
growth at 0.01 µM (IGROV-1): 98%
growth at 100 µM (786-0): -95%
growth at 0.1 µM (HCT-15 [3]): 94%
inhibition of growth at 10 µM (SK-BR-3): 93.1%
growth at 10 µM (RPMI-8226): -47.3%
growth at 0.01 µM (HCC 2998): 99%
growth at 0.1 µM (NCI-H23): 100%
growth at 10 µM (SN12C): -90.6%
GI50 (SK-OV-3; Homo sapiens): 1.9 µM
LC50 (SK-OV-3; Homo sapiens, SK-OV-3, 48 h): 5.86 µM
TGI (SK-OV-3; Homo sapiens, SK-OV-3, 48 h): 3.33 µM
growth at 0.1 µM (NCI/ADR-RES): 95%
growth at 10 µM (ACHN): -96.6%
growth at 100 µM (MDA-MB-231): -66%
growth at 10 µM (UACC-257): -18.5%
growth at 100 µM (COLO 205 [4]): -94%
GI50 (HOP-62 [5]): 1.42 µM
TGI (HOP-62 [5]): 2.85 µM
CC50 (HOP-62 [5]; read-out: LC50 (the source's name)): 5.7 µM
growth at 0.1 µM (SF-268 [6]): 95%
growth at 100 µM (SF-295): -81%
GI50 (HCT-15 [7]; 48 h): 0.3 µM
TGI (HCT-15 [7]; Homo sapiens): 1.01 µM
GI50 (HCT-15 [7]; Homo sapiens, HCT-15, 48 h): 0.295 µM
CC50 (HCT-15 [7]; Homo sapiens, HCT-15, read-out: LC50 (the source's name)): 3.75 µM
growth at 0.01 µM (HOP-92): 90%
growth at 0.1 µM (MOLT-4): 95%
growth at 10 µM (UO-31): -96.5%
growth at 0.01 µM (OVCAR-8): 102%
growth at 100 µM (NCI-H522): -79%
growth at 0.1 µM (KM12): 93%
growth at 10 µM (Hs-578T): -49.4%
growth at 0.01 µM (COLO 205 [8]): 92%
growth at 0.01 µM (UACC-62): 97%
GI50 (M14; 48 h): 0.21 µM
TGI (M14; 48 h): 0.47 µM
LC50 (50% lethal concentration) (M14; Homo sapiens, M14): 1.24 µM
GI50 (M14; Homo sapiens, M14, 48 h): 0.205 µM
TGI (M14; Homo sapiens, M14, 48 h): 0.466 µM
growth at 10 µM (NCI-H460): -82.3%
GI50 (OVCAR-5): 2.64 µM
TGI (OVCAR-5): 9.27 µM
growth at 0.01 µM (SF-268 [9]): 99%
